Results taken from patent US9533977B2, “Oxazolidinone derivative as CETP inhibitor, its preparation method, and pharmaceutical composition comprising the same” (DONG-A ST CO., LTD., priority 2013, dated 2017).

Biological target: T1, CETP (Homo sapiens, UniProt P11597)
T1 construct: from tissue; host or cells: human plasma from healthy men
T1 sequence (P11597 18-493): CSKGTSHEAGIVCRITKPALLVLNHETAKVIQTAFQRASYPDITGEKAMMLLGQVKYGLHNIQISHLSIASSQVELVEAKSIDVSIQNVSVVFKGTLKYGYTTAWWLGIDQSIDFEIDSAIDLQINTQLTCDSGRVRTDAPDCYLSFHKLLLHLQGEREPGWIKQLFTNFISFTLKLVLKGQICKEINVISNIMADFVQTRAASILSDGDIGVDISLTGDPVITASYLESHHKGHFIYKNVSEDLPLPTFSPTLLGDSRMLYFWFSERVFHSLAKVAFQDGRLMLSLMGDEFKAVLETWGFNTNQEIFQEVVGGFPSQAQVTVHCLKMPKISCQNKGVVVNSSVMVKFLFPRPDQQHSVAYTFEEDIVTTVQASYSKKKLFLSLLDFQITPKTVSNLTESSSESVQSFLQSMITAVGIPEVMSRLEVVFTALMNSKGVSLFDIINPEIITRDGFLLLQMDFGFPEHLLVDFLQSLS
Assay: Inhibitory activity against CETP in human plasma (Roar CETP activity kit, fluorescence)
Assay type: biochemical
Conditions: plasma from healthy men diluted 1:10 in assay buffer, 37° C., 3 hrs, fluorescence 465/535 nm; read-out: IC50, Inhibition of CETP Activity in Human Plasma
Method in brief: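 Healthy male human plasma, diluted 1:10, incubated 3 hrs at 37° C with donor/acceptor fluorescent substrates and compound (0.01–10000 nM, DMSO). Fluorescence at ex 465/em 535 nm, background-corrected against no-plasma and no-compound wells; IC50 from sigmoidal fit.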

IC50	Molecule
0.0118 µM	CCC1CCCN1c1cnc(N(CC)C2CCCCC2)c(CN2C(=O)O[C@H](c3cc(C(F)(F)F)cc(C(F)(F)F)c3)[C@@H]2C)c1 (stereo partly drawn) [Example 90, (4S,5R)-5-[3,5-bis(trifluoromethyl)phenyl]-4-methyl-3-({[2-(ethyl)(cyclohexyl)amino]-5-(2-ethyl-pyrrolidin-1-yl)pyridin-3-yl}methyl)-oxazolidin-2-one]
0.0267 µM	CCN(c1ncc(N2CCC(F)(F)C2)cc1CN1C(=O)O[C@H](c2cc(C(F)(F)F)cc(C(F)(F)F)c2)[C@@H]1C)C1CCCCC1 [Example 91, (4S,5R)-5-[3,5-bis(trifluoromethyl)phenyl]-4-methyl-3-({[2-(ethyl)(cyclohexyl)amino]-5-(3,3-difluoro-pyrrolidin-1-yl)pyridin-3-yl}methyl)-oxazolidin-2-one]
0.048 µM	CCN(c1ncc(N2CCCC2C(F)(F)F)cc1CN1C(=O)O[C@H](c2cc(C(F)(F)F)cc(C(F)(F)F)c2)[C@@H]1C)C1CCCCC1 (stereo partly drawn) [Example 92, (4S,5R)-5-[3,5-bis(trifluoromethyl)phenyl]-4-methyl-3-({[2-(ethyl)(cyclohexyl)amino]-5-(2-(trifluoromethyl)-pyrrolidin-1-yl)pyridin-3-yl}methyl)-oxazolidin-2-one]
0.00261 µM	Cc1noc(C)c1-c1cnc(N2CCCCC2)c(CN2C(=O)O[C@@H](c3cc(C(F)(F)F)cc(C(F)(F)F)c3)[C@@H]2C)n1 [Example 98, (4S,5S)-5-[3,5-bis(trifluoromethyl)phenyl]-3-{[6-(3,5-dimethylisoxazol-4-yl)-3-(piperidin-1-yl)pyrazin-2-yl)methyl}-4-methyloxazolidin-2-one]
0.0831 µM	Cc1noc(C)c1-c1cnc(N2CC(C)OC(C)C2)c(CN2C(=O)O[C@@H](c3cc(C(F)(F)F)cc(C(F)(F)F)c3)[C@@H]2C)n1 (stereo partly drawn) [Example 99, (4S,5S)-5-[3,5-bis(trifluoromethyl)phenyl]-3-{[6-(3,5-dimethylisoxazol-4-yl)-3-(2,6-dimethylmorpholino)pyrazin-2-yl]methyl}-4-methyloxazolidin-2-one]
0.0156 µM	Cc1noc(C)c1-c1cnc(N2CCCC(C(F)(F)F)C2)c(CN2C(=O)O[C@@H](c3cc(C(F)(F)F)cc(C(F)(F)F)c3)[C@@H]2C)n1 (stereo partly drawn) [Example 100, (4S,5S)-5-[3,5-bis(trifluoromethyl)phenyl]-3-{[6-(3,5-dimethylisoxazol-4-yl)-3-[3-(trifluoromethyl)piperidin-1-yl]pyrazin-2-yl]methyl}-4-methyloxazolidin-2-one]
0.00345 µM	CCN(CC1CCCC1)c1ncc(-c2c(C)noc2C)nc1CN1C(=O)O[C@H](c2cc(C(F)(F)F)cc(C(F)(F)F)c2)[C@@H]1C [Example 101, (4S,5R)-5-[3,5-bis(trifluoromethyl)phenyl]-3-({[3-(cyclopentylmethyl)(ethyl)amino]-4-methyl 6-(3,5-dimethylisoxazol-4-yl)pyrazin-3-yl}methyl)-oxazolidin-2-one]
0.00065 µM	CCN(C[C@H]1CC[C@H](CC(=O)O)CC1)c1ncc(-c2c(C)noc2C)nc1CN1C(=O)OC(c2cc(C(F)(F)F)cc(C(F)(F)F)c2)[C@@H]1C (stereo partly drawn) [Example 102]
0.0038 µM	CCN(C[C@H]1CC[C@H](CC(=O)O)CC1)c1ncc(-c2cccn2C)nc1CN1C(=O)OC(c2cc(C(F)(F)F)cc(C(F)(F)F)c2)[C@@H]1C (stereo partly drawn) [Example 104]
0.0303 µM	CCN(CC1CCC(CC(=O)O)CC1)c1ncc(-c2ccnn2C)nc1CN1C(=O)OC(c2cc(C(F)(F)F)cc(C(F)(F)F)c2)C1C [Example 106, trans-4-({[3-({(4S,5S)-5-[3,5-bis(trifluoromethyl)phenyl]-4-methyl-2-oxazolidin-3-yl}methyl)-5-(1-methyl-1H-pyrazol-5-yl)pyrazin-2-yl]{[N-(ethyl)aminomethyl]cyclohexyl)}acetic acid]
0.037 µM	CCN(CC1CCC(CC(=O)O)CC1)c1ncc(-c2cc(C)nn2C)nc1CN1C(=O)OC(c2cc(C(F)(F)F)cc(C(F)(F)F)c2)C1C [Example 107, trans-4-({[3-({(4S,5S)-5-[3,5-bis(trifluoromethyl)phenyl]-4-methyl-2-oxazolidin-3-yl}methyl)-5-(1,3-dimethyl-1H-pyrazol-5-yl)pyrazin-2-yl]{[N-(ethyl)aminomethyl]cyclohexyl)}acetic acid]
0.0459 µM	CCN(C[C@H]1CC[C@H](CC(=O)O)CC1)c1ncc(-c2cn(C)nc2C)nc1CN1C(=O)OC(c2cc(C(F)(F)F)cc(C(F)(F)F)c2)[C@@H]1C (stereo partly drawn) [Example 108]
0.00384 µM	CCN(C[C@H]1CC[C@H](CC(=O)O)CC1)c1ncc(-c2sccc2OC)nc1CN1C(=O)OC(c2cc(C(F)(F)F)cc(C(F)(F)F)c2)[C@@H]1C (stereo partly drawn) [Example 109]
0.0562 µM	CCN(C[C@H]1CC[C@H](CC(=O)O)CC1)c1ncc(-c2cc(C)cs2)nc1CN1C(=O)OC(c2cc(C(F)(F)F)cc(C(F)(F)F)c2)[C@@H]1C (stereo partly drawn) [Example 110]
0.00311 µM	CCN(C[C@H]1CC[C@H](CC(=O)O)CC1)c1ncc(-c2sccc2C)nc1CN1C(=O)OC(c2cc(C(F)(F)F)cc(C(F)(F)F)c2)[C@@H]1C (stereo partly drawn) [Example 111]
0.0374 µM	CCN(CC1CCC(CC(=O)O)CC1)c1ncc(-c2nccs2)nc1CN1C(=O)OC(c2cc(C(F)(F)F)cc(C(F)(F)F)c2)C1C [Example 112, trans-4-({[3-({(4S,5S)-5-[3,5-bis(trifluoromethyl)phenyl]-4-methyl-2-oxazolidin-3-yl}methyl)-5-(thiazol-2-yl)pyrazin-2-yl]{[N-(ethyl)aminomethyl]cyclohexyl)}acetic acid]
0.016 µM	CCN(C[C@H]1CC[C@H](CC(=O)O)CC1)c1ncc(-c2cscn2)nc1CN1C(=O)OC(c2cc(C(F)(F)F)cc(C(F)(F)F)c2)[C@@H]1C (stereo partly drawn) [Example 113]

IC50	Molecule
0.0103 µM	CCN(C[C@H]1CC[C@H](CC(=O)O)CC1)c1ncc(-c2cccs2)nc1CN1C(=O)OC(c2cc(C(F)(F)F)cc(C(F)(F)F)c2)[C@@H]1C (stereo partly drawn) [Example 114]
0.00629 µM	CCN(C[C@H]1CC[C@H](CC(=O)O)CC1)c1ncc(-c2ccccc2)nc1CN1C(=O)OC(c2cc(C(F)(F)F)cc(C(F)(F)F)c2)[C@@H]1C (stereo partly drawn) [Example 116]
0.0117 µM	CCN(C[C@H]1CC[C@H](CC(=O)O)CC1)c1ncc(-c2ccc(C#N)cc2)nc1CN1C(=O)OC(c2cc(C(F)(F)F)cc(C(F)(F)F)c2)[C@@H]1C (stereo partly drawn) [Example 117]
0.0782 µM	CCN(C[C@H]1CC[C@H](CC(=O)O)CC1)c1ncc(-c2cccnc2)nc1CN1C(=O)OC(c2cc(C(F)(F)F)cc(C(F)(F)F)c2)[C@@H]1C (stereo partly drawn) [Example 119]
0.0248 µM	CCN(C[C@H]1CC[C@H](CC(=O)O)CC1)c1ncc(-c2cncc(F)c2)nc1CN1C(=O)OC(c2cc(C(F)(F)F)cc(C(F)(F)F)c2)[C@@H]1C (stereo partly drawn) [Example 120]
0.00388 µM	CCN(C[C@H]1CC[C@H](CC(=O)O)CC1)c1ncc(C2CC2)nc1CN1C(=O)OC(c2cc(C(F)(F)F)cc(C(F)(F)F)c2)[C@@H]1C (stereo partly drawn) [Example 121]
0.00468 µM	CCN(C[C@H]1CC[C@H](CC(=O)O)CC1)c1ncc(C2CCC2)nc1CN1C(=O)OC(c2cc(C(F)(F)F)cc(C(F)(F)F)c2)[C@@H]1C (stereo partly drawn) [Example 122]
0.00719 µM	CCCN(C[C@H]1CC[C@H](CC(=O)O)CC1)c1ncc(-c2c(C)noc2C)nc1CN1C(=O)OC(c2cc(C(F)(F)F)cc(C(F)(F)F)c2)[C@@H]1C (stereo partly drawn) [Example 123]
0.017 µM	Cc1noc(C)c1-c1cnc(N(C)C[C@H]2CC[C@H](CC(=O)O)CC2)c(CN2C(=O)OC(c3cc(C(F)(F)F)cc(C(F)(F)F)c3)[C@@H]2C)n1 (stereo partly drawn) [Example 126]
0.043 µM	C[C@H]1C(c2cc(C(F)(F)F)cc(C(F)(F)F)c2)OC(=O)N1Cc1nc(N2CCCC2)cnc1N(C)C[C@H]1CC[C@H](CC(=O)O)CC1 (stereo partly drawn) [Example 127]
0.0239 µM	C[C@H]1C(c2cc(C(F)(F)F)cc(C(F)(F)F)c2)OC(=O)N1Cc1nc(C2CCC2)cnc1N(C)C[C@H]1CC[C@H](CC(=O)O)CC1 (stereo partly drawn) [Example 128]
0.034 µM	C[C@H]1C(c2cc(C(F)(F)F)cc(C(F)(F)F)c2)OC(=O)N1Cc1nc(C2CCCC2)cnc1N(C)C[C@H]1CC[C@H](CC(=O)O)CC1 (stereo partly drawn) [Example 129]
0.00886 µM	CCN(C[C@H]1CC[C@H](CCO)CC1)c1ncc(-c2c(C)noc2C)nc1CN1C(=O)OC(c2cc(C(F)(F)F)cc(C(F)(F)F)c2)[C@@H]1C (stereo partly drawn) [Example 130]
0.00498 µM	CCN(CC1CCC(CCO)CC1)c1ncc(N2CCCC2)nc1CN1C(=O)OC(c2cc(C(F)(F)F)cc(C(F)(F)F)c2)C1C [Example 131, trans-4-({[3-({(4S,5S)-5-[3,5-bis(trifluoromethyl)phenyl]-4-methyl-2-oxazolidin-3-yl}methyl)-5-(pyrrolidin-4-yl)pyrazin-2-yl]{[N-(ethyl)aminomethyl]cyclohexyl)}propanol]
0.0116 µM	(4S,5R)-5-[3,5-bis(trifluoromethyl)phenyl]-3-({[2-(cyclopropyl)(cyclohexyl)amino]-5-(3,5-dimethyl-isoxazol-4-yl)pyrazin-3-yl}methyl)-4-methyloxazolidin-2-one [Example 97]
0.194 µM	(4S,5R)-5-[3,5-bis(trifluoromethyl)phenyl]-4-methyl-3-({2-[(3R,4R)-4-ethoxytetrahydrofuran-3-yl)(methyl)amino]-5-(trifluoromethyl)pyridin-3-yl}methyl)-oxazolidin-2-one [Example 3]
